# Read-outs that look alike come from different tables or passages of the source.
# B1: dsDNA: dsDNA, forward SEQ ID NO: 10, reverse SEQ ID NO: 11, Integrated DNA Technologies (nucleic acid)
# sense: AAGCATTTATCAGGGTTATTGTCTCATGAGCGGAT
# antisense: ATCCGCTCATGAGACAATAACCCTGATAAATGCTT
# modifications: DNA, backbone and methylation of C not given here
# How the values were obtained:
# SirT6 [1] = target: T1, SirT6 (Homo sapiens, UniProt Q8N6T7); assay: Activation of SIRT6 by nucleosides or nucleotides, HPLC of AADPR (Example 8); assay type: biochemical; conditions: 800 μM NAD+, 500 μM H3 peptide, 11.3 μM SIRT6
# T1 construct: The protein expression and purification were the same as the full length SIRT6 as described above; made in house; host or cells: E. coli BL21 Codon-plus RIPL
# T1 sequence (Q8N6T7 whole entry): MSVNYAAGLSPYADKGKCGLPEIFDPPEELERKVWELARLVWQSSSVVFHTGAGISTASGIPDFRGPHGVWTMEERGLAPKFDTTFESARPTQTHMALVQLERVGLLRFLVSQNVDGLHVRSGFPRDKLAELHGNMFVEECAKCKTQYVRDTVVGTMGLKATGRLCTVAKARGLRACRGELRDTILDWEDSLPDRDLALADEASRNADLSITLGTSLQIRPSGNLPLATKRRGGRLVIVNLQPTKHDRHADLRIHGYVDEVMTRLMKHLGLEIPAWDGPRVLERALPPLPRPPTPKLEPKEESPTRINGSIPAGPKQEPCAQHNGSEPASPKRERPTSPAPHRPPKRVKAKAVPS
# Experimental: Reactions containing 800 μM NAD^+, 500 μM H3 peptide, and 100 mM phosphate buffer at pH 7.5, with varying concentrations of nucleosides or nucleotides were initiated by addition of SIRT6 enzyme to a concentration of 11.3 μM. Reactions were incubated for 2 hours at 37° C. and quenched by addition of trifluoroacetic acid to pH 2. After centrifugation to remove precipitates, reactions were injected on HPLC for activity analysis. Production of 2′- and 3′-AADPR were analyzed at 260 nm.
# SirT6 [2] = target: T1, SirT6; assay: Determination of Kd of suramin for SirT6 activation by HPLC (Example 1); assay type: biochemical
# Experimental: FIG. 2C depicts the determination of Kd of suramin for activation of SirT6. […] After 2 hours incubation at 37° C., the deacetylated H3 was separated from H3 by gradient (0˜30%) acetonitrile in 0.1% TFA using a C18 column, and analyzed by integrating its area at 215 nm wavelength.
# The precipitated proteins and other insolubles were removed by centrifugation at 15,000 rpm for 5 minutes. The peptides were separated by a Waters Xterra RP-18 column using a gradient of 0-30% acetonitrile in 0.1% trifluoroacetic acid. […] The turnover rates versus […] were plotted and fitted to the equation: Activation (Fold)=1+m*x/(Kd+x) using the software Kaleidagraph.
# SirT6 [3] = target: T1, SirT6; assay: Gel shift assay of DNA association to SirT6 (Example 5); assay type: binding; conditions: 1 mM suramin; 50 ng/μl linearized pSTBlue, 10 μM SirT6
# Experimental: Lane 1, DNA+NAD; Lane 2, DnA+H3; Lane 3, DNA+NAD+H3; Lane 4, DNA+SirT6; Lane 5, DNA+NAD+SirT6; Lane 6, DNA+H3+SirT6; Lane 7, DNA+NAD+H3+SirT6; Lane 8, DNA+SirT6+1 mM suramin; Lane 9, DNA+NAD+SirT6+1 mM suramin; Lane 10, DNA+H3+SirT6+1 mM suramin; Lane 11, DNA+NAD+H3+SirT6+1 mM suramin; Lane 12, DNA only. […] Lane 1, DNA+H3; Lane 2, DNA+H4; Lane 3, DNA+SirT6; Lane 4, DNA+H3+SirT6; Lane 5, DNA+H4+SirT6; Lane 6, DNA+NAD+H3+SirT6; Lane 7, DNA+NAD+H4+SirT6; Lane 8, DNA+SirT6+1 mM suramin; Lane 9, DNA+H3+SirT6+1 mM suramin; Lane 10, DNA+H4+SirT6+1 mM suramin; Lane 11, DNA+NAD+H3+SirT6+1 mM suramin; Lane 12, DNA+NAD+H4+SirT6+1 mM suramin; Lane 13, DNA only. 6 μl of each sample involving 50 ng/μl linearized pSTBlue plasmid, 800 μM NAD, 10 μM SirT6, 480 μM H3/H4, and/or 1 mM suramin were loaded to 0.6% native agarose gel containing ethidium bromide and ran at 100 V for one and half hours. DNA bound to SirT6 stayed in the wells and free DNA ran to the bottom of the gel. The top arrow indicated the large complex formed by DNA and SirT6.
# The plasmid pSTBlue was linearized by EcoRI, BamHI, or EcoRV, and then purified by DNA gel extraction kit (Novagen) or […]™ III kit (MP Biomedicals, LLC). 6 μl of each sample contained 50 ng/μl of linearized pSTBlue, 800 μM NAD, 10 μM SirT6/truncated form, 480 μM H3, and/or 1 mM suramin as indicated. […]
# SirT6-DNA complex = target: T2, SirT6-DNA complex (Homo sapiens, UniProt Q8N6T7); assay: Suramin competition with binding of linearized DNA to SIRT6 (Example 6); conditions: for Kd: read-out: Kd of suramin for dissociation of linearized DNA from SirT6
# T2 construct: The protein expression and purification were the same as the full length SIRT6 as described above; made in house; host or cells: E. coli BL21 Codon-plus RIPL
# T2 sequence (Q8N6T7 whole entry, one chain of several): as the sequence (Q8N6T7 whole entry) above
# Experimental: The linearized DNA was incubated with SirT6 and Ni-NTA resin. The resin was washed as described in Materials and Methods, and the complex of SirT6-DNA was dissociated by 1 mM suramin. The parallel experiments were done in the presence of 500 uM H3 peptide. DNA bound to SirT6 was quantified and fit to Michaelis-Menten equation to get Kd of DNA binding to the enzyme. […] The single stranded DNA was incubated with SirT6 and Ni-NTA resin. The resin was washed and the complex of SirT6-ssDNA was dissociated by 1 mM suramin. The parallel experiments were done in the presence of 500 uM H3 peptide. […] The linearized DNA was incubated with SirT6 and Ni-NTA resin with or without H3 peptide. After washing, the resin was incubated with different concentration of surmain. The dissociated DNA was quantified by gel electrophoresis. […] After the resin was washed, DNA was dissociated with 1 mM suramin and quantified by gel electrophoresis. Lane 1, 150 ng circular pSTBlue (C-pSTBlue); Lane 2, 150 ng pSTBlue cut with BamHI (B-pSTBlue); Lane 3, 150 ng pSTBlue cut with EcoRV (E-pSTBlue); Lane 4, circular pSTBlue bound to SirT6; Lane 5, pSTBlue cut with BamHI bound to SirT6; Lane 6, pSTBlue cut with EcoRV bound to SirT6; Lane 7, circular pSTBlue bound to SirT6 in the presence of H3; Lane 8, pSTBlue cut with BamHI bound to SirT6 in the presence of H3; Lane 9, pSTBlue cut with EcoRV bound to SirT6 in the presence of H3; Lane 10, DNA ladder.
# In order to test if suramin competed with the binding of DNA to SIRT6, 20 ng/μl pSTBlue was incubated with 5 μM SIRT6, 25% slurry Ni-NTA resin, and/or 1 mM H3 peptide. After incubation for 1 hour at room temperature, the SIRT6-DNA-resin complex was washed with 10 and 20 mM imidazole, 100 mM phosphate buffer, pH 7.5 as described above. The SIRT6-DNA-resin complex was incubated with different concentrations of suramin. The dissociated DNA was then quantified by 0.8% agarose gel electrophoresis and the DNA level was fitted to Michaelis-Menten equation using the software Kaleidagraph.
# [4] = target: T3, truncated SirT6 (deletion of N terminal 17 amino acids) (Homo sapiens, UniProt Q8N6T7); assay: Deacetylation rate of truncated SirT6 with suramin or single stranded DNA; assay type: biochemical; conditions: 50 μM suramin or 100 ng/μl single stranded DNA; 800 μM NAD, 480 μM H3, 10 μM enzyme
# T3 construct: The truncated SIRT6 was cloned similarly with the full length SIRT6; poly-histidine (pET28a) (N); made in house; host or cells: E. coli BL21 Codon-plus RIPL
# T3 sequence (Q8N6T7 with tags, fused parts or gaps): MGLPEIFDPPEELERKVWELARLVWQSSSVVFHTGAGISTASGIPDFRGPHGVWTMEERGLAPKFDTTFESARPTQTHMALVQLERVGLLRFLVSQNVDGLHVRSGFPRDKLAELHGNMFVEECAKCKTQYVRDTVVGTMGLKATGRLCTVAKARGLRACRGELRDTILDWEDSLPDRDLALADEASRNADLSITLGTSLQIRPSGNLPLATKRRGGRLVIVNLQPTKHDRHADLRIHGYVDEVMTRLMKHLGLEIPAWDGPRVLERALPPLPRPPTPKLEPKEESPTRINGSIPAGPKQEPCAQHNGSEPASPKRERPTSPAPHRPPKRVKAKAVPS
# From the text: The deacetylation rate of different truncated SirT6 was normalized to the rate of full length SirT6 for the comparison.
# The truncated SIRT6 was cloned similarly with the full length SIRT6. The primers used in the cloning of different truncated SIRT6 are the following: SIRT6Δ2-7 Forward 5′ GCTAGC ATGGGGCTGTCGCCGTACGCG 3′ (SEQ ID NO: 4); SIRT6Δ2-12 Forward 5′ GCTAGC ATG […] 3′ (SEQ ID NO: 5); SIRT6Δ2-18 Forward 5′ GCTAGC ATGGGCCTCCCGGAGATCTTCGAC 3′ (SEQ ID NO: 6); SIRT6Δ2-51 Forward 5′ 5′ GCTAGC ATGACGGGTGCCGGCATCAGCACT 3′ (SEQ ID NO: 7). The common reverse primer is 5′[…] 3′ (SEQ ID NO: 8). The truncated SIRT6 was amplified by PCR reaction. The PCR product was then ligated into pSTblue-1 (Novagen). After digestion with NheI and BamHI, the fragment containing SIRT6 gene was ligated into pET28a vector (Novagen). The SIRT6 truncated sequence in pET28a plasmid was confirmed by DNA sequencing, and the plasmid was then transformed into BL21Codon-plus RIPL cells (Stratagene). The protein expression and purification were the same as the full length SIRT6 as described above.
# SirT6 [5] = target: T1, SirT6; assay: Determination of Kd of DNA for SirT6 activation by HPLC (Example 2); assay type: biochemical; conditions: 800 μM NAD, 480 μM H3, 10 μM SirT6, 2 hours 37° C.; unit given as mM
# Experimental: FIG. 5A depicts a schematic of DNA structure. […] After 2 hours incubation at 37° C., either the deacetylated H3 was separated from H3 in the reaction containing the digested calf thymus DNA or AADPR was separated from other components in the reaction containing ssDNA, the plasmid, or dsDNA.
# The plasmid pSTBlue was digested with BamHI and EcoRV and purified by […]™ III kit. […] The AADPR was separated by HPLC and the quantified data were fit into Michaelis-Menten equation to get Km of H3.
# In the enzymatic reaction, the following DNA was used.
# Calf thymus DNA (USB Corporation), which was digested with EcoRI and then purified using Spinprep Gel DNA Kit (Novagen);
# ssDNA (5′ […] 3′ (SEQ ID NO: 9), Integrated DNA Technologies);
# dsDNA (forward 5′ […] 3′ (SEQ ID NO: 10), reverse 5′ […] 3′ (SEQ ID NO: 11), Integrated DNA Technologies); and
# pSTBlue plasmid, which was amplified using DH5α cells and purified by WIZARD™ PLUS (Midiprep) DNA purification system (Promega).
# The precipitated proteins and other insolubles were removed by centrifugation at 15,000 rpm for 5 minutes. DNA in the supernatant was further removed by centrifugation at 15,000 rpm for 10 minutes using Microcon with 10 kDa cutoff (Millipore). In the experiment with the digested calf thymus DNA, the peptides were separated by a Waters Xterra RP-18 column using a gradient of 0-30% acetonitrile in 0.1% trifluoroacetic acid. […]
molecule,measurement,setting,value
NC(=O)c1ccc[n+]([C@@H]2O[C@H](COP(=O)([O-])O)C(O)C2(Cl)Cl)c1 (stereo partly drawn) [gem-diCl-NMN],SIRT6 activated,SirT6 [1]; at 500 μM,90% activated at 500 μM
NC(=O)c1ccc[n+]([C@@H]2O[C@H](CO)C(O)C2(Cl)Cl)c1 (stereo partly drawn) [gem-diCl-NR],SIRT6 activated,SirT6 [1]; at 1 mM,30% activated at 1 mM
"NC(=O)c1ccc[n+]([C@@H]2O[C@H](CO)[C@@H](O)C2(F)F)c1 [gem-diF-NR, 1-(2′-deoxy-2′,2′-difluoro-ribofuranosyl)-nicotinamide]",SIRT6 activated,SirT6 [1]; at 500 μM,30% activated at 500 μM
"NC(=O)c1ccc[n+]([C@@H]2O[C@H](CO)[C@H](O)C2F)c1 (stereo partly drawn) [ribo-F-NR, 1-(2-deoxy-2-fluoro-D-ribofuranosyl)-nicotinamide]",SIRT6 activated,SirT6 [1]; at 550 μM,17% activated at 550 μM
Cc1ccc(C(=O)Nc2ccc(S(=O)(=O)O)c3cc(S(=O)(=O)O)cc(S(=O)(=O)O)c23)cc1NC(=O)c1cccc(NC(=O)Nc2cccc(C(=O)Nc3cc(C(=O)Nc4ccc(S(=O)(=O)O)c5cc(S(=O)(=O)O)cc(S(=O)(=O)O)c45)ccc3C)c2)c1 [suramin],Kd,SirT6 [2],54.7 µM
same,Association of DNA to SirT6,SirT6 [3],weakened
same,Vmax of dissociated DNA,SirT6-DNA complex; in the absence of H3,6.37 ng/µL
same,Kd,SirT6-DNA complex; in the absence of H3,72.4 µM
same,Vmax of dissociated DNA,SirT6-DNA complex; in the presence of H3,17.8 ng/µL
same,Kd,SirT6-DNA complex; in the presence of H3,129 µM
same,Activation of truncated SirT6 deacetylation,[4],lost of activation
B1,Kd,SirT6 [5],> 10 mM

# From patent US9322049B2, “Activation and activators of SirT6” (CORNELL UNIVERSITY, priority 2009, dated 2016)
